Measured values published in a compilation of properties of binary mixtures (doi:10.1016/j.jct.2020.106093).

Assay: xn = mol fraction of the nth substance listed
Details: 100.9 kPa

CC(=O)[O-].CC[NH2+]CC + O
Details	electrical conductivity [S/m]	speed of sound [m/s]	viscosity [mPa·s]
283.15 K, x1 = 0.015	–	–	2.07
283.15 K, x1 = 0.055	–	–	5.43
283.15 K, x1 = 0.119	–	–	15.42
283.15 K, x1 = 0.549	–	–	143.2
283.15 K, x1 = 0.714	–	–	161.6
285.65 K, x1 = 0.015	–	–	1.92
285.65 K, x1 = 0.055	–	–	4.91
285.65 K, x1 = 0.119	–	–	13.69
285.65 K, x1 = 0.168	–	–	24.1
285.65 K, x1 = 0.24	–	–	47.8
285.65 K, x1 = 0.351	–	–	79.3
285.65 K, x1 = 0.549	–	–	122.5
285.65 K, x1 = 0.714	–	–	138.5
288.15 K, x1 = 0.015	–	–	1.78
288.15 K, x1 = 0.055	–	–	4.46
288.15 K, x1 = 0.119	–	–	12.18
288.15 K, x1 = 0.168	–	–	21.1
288.15 K, x1 = 0.24	–	–	41.6
288.15 K, x1 = 0.351	–	–	68.3
288.15 K, x1 = 0.714	–	–	119
290.65 K, x1 = 0.015	–	–	1.65
290.65 K, x1 = 0.055	–	–	4.05
290.65 K, x1 = 0.119	–	–	10.87
290.65 K, x1 = 0.168	–	–	18.7
290.65 K, x1 = 0.24	–	–	36.3
290.65 K, x1 = 0.351	–	–	59
290.65 K, x1 = 0.549	–	–	90.6
290.65 K, x1 = 0.714	–	–	102.7
293.15 K, x1 = 0.015	–	1580	1.538
293.15 K, x1 = 0.055	–	1761	3.73
293.15 K, x1 = 0.119	–	1844	9.74
293.15 K, x1 = 0.168	–	1826	16.49
293.15 K, x1 = 0.24	–	1768	31.8
293.15 K, x1 = 0.35	–	1704	–
293.15 K, x1 = 0.351	–	–	51.2
293.15 K, x1 = 0.549	–	1597	78.4
293.15 K, x1 = 0.708	–	1554	–
293.15 K, x1 = 0.714	–	–	89.2
293.15 K, x1 = 0.835	–	1523	–
295.65 K, x1 = 0.015	–	–	1.437
295.65 K, x1 = 0.055	–	–	3.4
295.65 K, x1 = 0.119	–	–	8.75
295.65 K, x1 = 0.24	–	–	28
295.65 K, x1 = 0.351	–	–	44.7
295.65 K, x1 = 0.549	–	–	68.4
295.65 K, x1 = 0.714	–	–	77.8
298.15 K, x1 = 0.007	1.55	–	–
298.15 K, x1 = 0.015	2.35	1588	1.346
298.15 K, x1 = 0.054	3.1	–	–
298.15 K, x1 = 0.055	–	1756	3.12
298.15 K, x1 = 0.119	–	1832	7.91
298.15 K, x1 = 0.12	2.48	–	–
298.15 K, x1 = 0.168	1.73	1813	13.13
298.15 K, x1 = 0.24	0.98	1754	24.8
298.15 K, x1 = 0.351	–	–	39.3
298.15 K, x1 = 0.353	0.708	–	–
298.15 K, x1 = 0.549	–	1583	59.9
298.15 K, x1 = 0.55	0.365	–	–
298.15 K, x1 = 0.714	0.26	–	68.2
298.15 K, x1 = 0.835	–	1507	–
298.15 K, x1 = 0.838	0.231	–	–
298.15 K, x1 = 0.945	0.23	–	–
300.65 K, x1 = 0.015	–	–	1.263
300.65 K, x1 = 0.055	–	–	2.88
300.65 K, x1 = 0.119	–	–	7.17
300.65 K, x1 = 0.24	–	–	21.9
300.65 K, x1 = 0.351	–	–	34.6
300.65 K, x1 = 0.549	–	–	52.4
300.65 K, x1 = 0.714	–	–	60
303.15 K, x1 = 0.007	1.69	–	–
303.15 K, x1 = 0.015	3.24	1595	1.189
303.15 K, x1 = 0.054	4.76	–	–
303.15 K, x1 = 0.055	–	1751	2.67
303.15 K, x1 = 0.119	–	1819	6.51
303.15 K, x1 = 0.12	3.2	–	–
303.15 K, x1 = 0.24	1.5	1741	19.6
303.15 K, x1 = 0.35	–	1677	–
303.15 K, x1 = 0.353	0.823	–	–
303.15 K, x1 = 0.549	–	1569	46.3
303.15 K, x1 = 0.55	0.473	–	–
303.15 K, x1 = 0.708	–	1524	–
303.15 K, x1 = 0.714	0.365	–	53
303.15 K, x1 = 0.838	0.297	–	–
303.15 K, x1 = 0.945	0.29	–	–
305.65 K, x1 = 0.015	–	–	1.121
305.65 K, x1 = 0.055	–	–	2.48
305.65 K, x1 = 0.119	–	–	5.94
305.65 K, x1 = 0.168	–	–	9.61
305.65 K, x1 = 0.351	–	–	27.2
305.65 K, x1 = 0.549	–	–	41.1
305.65 K, x1 = 0.714	–	–	47
308.15 K, x1 = 0.015	–	1601	1.059
308.15 K, x1 = 0.055	–	1745	2.31
308.15 K, x1 = 0.119	–	1807	5.44
308.15 K, x1 = 0.168	–	1786	8.71
308.15 K, x1 = 0.24	–	1727	15.67
308.15 K, x1 = 0.35	–	1664	–
308.15 K, x1 = 0.351	–	–	24.2
308.15 K, x1 = 0.549	–	1555	36.6
308.15 K, x1 = 0.708	–	1509	–
308.15 K, x1 = 0.714	–	–	41.9
310.65 K, x1 = 0.015	–	–	1.003
310.65 K, x1 = 0.055	–	–	2.15
310.65 K, x1 = 0.119	–	–	5
310.65 K, x1 = 0.168	–	–	7.94
310.65 K, x1 = 0.351	–	–	21.7
310.65 K, x1 = 0.714	–	–	37.4
310.65 K, x1 = 0.84	–	–	38
313.15 K, x1 = 0.015	–	1605	0.952
313.15 K, x1 = 0.055	–	1739	2.01
313.15 K, x1 = 0.119	–	1794	4.6
313.15 K, x1 = 0.168	–	1772	7.26
313.15 K, x1 = 0.24	–	1713	12.76
313.15 K, x1 = 0.35	–	1650	–
